# Measured values reported in patent publication US6521594B1, “Method and composition for treating thrombosis” (La Jolla Cancer Research Foundation, priority 1990, dated 2003).
# Like-named read-outs stand apart in the source and are kept apart here.
# Tests used:
# platelets [1] = target: T1, platelets (Homo sapiens, UniProt P05106+P08514); assay type: cell-based; details: ADP 10 μm; citrated PRP; read-out: ADP-Stimulated Aggregation (IC50)
# Method: Briefly, the change in light transmission was measured through a stirred suspension of platelets in an aggregometer (Model 400 VS, Chrono-Log, Havertown, Pa., USA). […] In studies using thrombin, the PRP was gel-filtered on Sepharose 2B in divalent ion-free Tyrode's solution containing 2% BSA. For all studies, the reference standard was platelet-poor plasma, which was obtained by centrifuging PRP at 1000×g for 5 min.
# All aggregation studies were performed at 37° C. with a constantly stirred suspension of 3×10^8 platelets/ml. (Platelet count was determined with the aid of a hemacytometer.) Peptides and stimulants were added to these suspensions in 1% dilutions. The PRP and gel-filtered platelets were used within three hours from the time of blood collection.
# Peptide anti-aggregation potencies were determined from dose-responsive curves for the inhibition of the maximum aggregation responses stimulated by physiologic doses of ADP (10 μm) and thrombin (2 U/ml).
# platelets [2] = target: T1, platelets; test: Human platelet aggregation in PRP (modified assay, Table II); assay type: cell-based; details: citrate, collagen, U46619 or ADP
# Method: In an independent study, a slightly modified aggregation assay was used. Platelet aggregation assays were performed in human platelet rich plasma (PRP). […] The blood was centrifuged at 160×g for 10 minutes at 22° C. and allowed to stand for 5 minutes after which the PRP was decanted. Platelet poor plasma (PPP) was isolated from the remaining blood after centrifugation at 2000×g for 25 minutes. The platelet count of the PRP was diluted to about 300,000 platelets per microliter with PPP.
# A 225 μl aliquot of PRP plus 25 μl of either a dilution of the test inhibitor sample or a control (PBS) was incubated for 5 minutes in a Chrono-log Whole Blood Aggregometer at 37° C.
# platelets [3] = test: Ex vivo platelet aggregation in the canine coronary thrombosis study; set-up: species or system dog
# Method: For all ex vivo studies (see FIG. 3), control aggregation values were standardized to the percentages of light transmission observed in PRP and PPP samples (0% and 100%, respectively).
# (§1) Animals were randomly assigned to two treatment groups: vehicle control (i.e., normal saline) or RGD peptides at various concentrations. Peptides were administered intra-atrially in both bolus and continuous injections. Each bolus injection consisted of 0.5 to 10 mg/kg and was administered 15 minutes before application of the current. A continuous infusion of the same peptide was then started immediately after completion of this initial injection. Animals received a 25 μg/kg/min to 200 μg/kg/min infusion. The anti-thrombotic effects of the peptides were monitored until 30 minutes after the occurrence of a persistent, occlusive thrombus or five hours after the initiation of electrical stimulation (whichever resulted first). If an occlusive thrombus had not developed within four hours after the initiation of current, the peptide infusion was stopped.
# Platelet counts and ex vivo aggregation studies were performed one hour before and 1, 3, and 5 hours after application of anodal direct current.
# Platelet aggregation was also determined ex vivo at one, three, and five hours after current application. For these studies, arachidonic acid, or collagen was again used to stimulate the platelets.
# coronary thrombosis = test: Electrically induced canine coronary thrombosis (time to full occlusion); assay type: in vivo, dog
# Method: Male mongrel dogs weighing 14 to 20 kg were selected based on proper aggregation of their platelets in response to arachidonic acid, collagen, and adenosine disphosphate (ADP) and based on similar weights and hemodynamic properties.
# Before surgery, the animals were anesthetized with sodium pentobarbital (30 mg/kg, i.v.) and then intubated and ventilated on room air with positive pressure using a respirator (Harvard Apparatus, S. Natick, Mass.) at a volume of 30 ml/kg and a frequency of 12 breaths/min. Surgery, performed under aseptic conditions, was begun with the placement of cannulae into the left carotid artery and jugular vein for monitoring arterial blood pressure (Statham P23 pressure transducer, Gould, Inc., Cardiovascular Products, Oxnard, Calif.) and administering intravenous fluids.
# The heart was exposed via a left thoracotomy through the 5th intercostal space. A 2-cm segment of the left circumflex coronary artery (LCCA) was isolated from surrounding tissue by blunt dissection. […] The intra-coronary electrode was constructed by attaching a 25-gauge hypodermic needle tip to a 30-gauge Teflon-insulated silver-coated copper wire. The mechanical occluder was constructed of stainless steel in a C shape with a Teflon screw (2 mm diameter) on top. It was adjusted to control vessel circumference and decrease the reactive hyperemic flow due to a 10-sec (full) occlusion by 50-70% without affecting basal coronary blood flow (FIG. 1). A monopolar epicardial electrode was sutured to the surface of the ventricle in the region of LCCA distribution to monitor ischemic changes in the electrocardiogram (ECG). The left atrium was cannulated with polythylene tubing for administration of the peptide. Continuous recordings of blood pressure, limb lead II ECG, epicardial electrogram, and mean and phasic LCCA blood flow were obtained on a Model 7 polygraph (Grass Instrument Co., Quincy, Mass.).
# One hour after the completion of surgery, a 100 micro-amp continuous anodal direct current delivered from a 9 volt nickel-cadmium battery was applied to the intimal surface of the LCCA. The anode of the battery was in series with a 250,000 ohm potentiometer and the intraluminal coronary artery electrode. The electric circuit was completed by placing the cathode in a subcutaneous site. Electrical stimulation was applied for three hours. At the conclusion of each experiment, the heart was fibrillated electrically and quickly removed, and the LCCA was dissected free as far as possible to verify the position of the implanted anodal electrode.
# as §1
# Coronary thrombosis was quantified as the time to full occlusion. The effects of the various peptide treatments on coronary thrombosis is illustrated in FIG. 4.
# T1 sequence (P08514 32-1039): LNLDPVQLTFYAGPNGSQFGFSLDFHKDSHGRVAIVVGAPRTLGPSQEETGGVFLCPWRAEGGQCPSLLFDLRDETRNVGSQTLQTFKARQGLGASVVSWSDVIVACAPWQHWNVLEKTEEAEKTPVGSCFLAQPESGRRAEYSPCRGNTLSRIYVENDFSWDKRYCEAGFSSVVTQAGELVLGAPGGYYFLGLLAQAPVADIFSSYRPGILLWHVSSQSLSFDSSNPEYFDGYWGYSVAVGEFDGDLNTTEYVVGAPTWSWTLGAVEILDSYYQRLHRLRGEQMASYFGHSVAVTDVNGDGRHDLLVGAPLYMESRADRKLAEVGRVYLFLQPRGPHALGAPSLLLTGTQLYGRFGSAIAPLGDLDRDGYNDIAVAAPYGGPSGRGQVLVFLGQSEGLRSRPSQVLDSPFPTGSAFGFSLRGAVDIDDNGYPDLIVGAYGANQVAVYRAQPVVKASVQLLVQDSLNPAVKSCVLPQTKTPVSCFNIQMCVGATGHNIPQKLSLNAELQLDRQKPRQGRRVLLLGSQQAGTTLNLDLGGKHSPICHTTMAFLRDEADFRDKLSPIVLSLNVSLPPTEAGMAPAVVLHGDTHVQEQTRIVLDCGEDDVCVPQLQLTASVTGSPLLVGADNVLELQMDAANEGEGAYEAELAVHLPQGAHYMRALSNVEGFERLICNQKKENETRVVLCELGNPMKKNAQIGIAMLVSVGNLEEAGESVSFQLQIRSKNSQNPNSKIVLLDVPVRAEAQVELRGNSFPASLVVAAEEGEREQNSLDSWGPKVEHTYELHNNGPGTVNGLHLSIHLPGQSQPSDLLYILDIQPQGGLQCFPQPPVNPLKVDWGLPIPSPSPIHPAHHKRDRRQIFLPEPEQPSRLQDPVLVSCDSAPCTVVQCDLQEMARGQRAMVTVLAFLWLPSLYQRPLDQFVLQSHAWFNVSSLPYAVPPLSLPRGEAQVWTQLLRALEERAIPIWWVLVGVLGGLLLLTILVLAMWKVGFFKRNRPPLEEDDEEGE
# T1 sequence (P05106 27-788): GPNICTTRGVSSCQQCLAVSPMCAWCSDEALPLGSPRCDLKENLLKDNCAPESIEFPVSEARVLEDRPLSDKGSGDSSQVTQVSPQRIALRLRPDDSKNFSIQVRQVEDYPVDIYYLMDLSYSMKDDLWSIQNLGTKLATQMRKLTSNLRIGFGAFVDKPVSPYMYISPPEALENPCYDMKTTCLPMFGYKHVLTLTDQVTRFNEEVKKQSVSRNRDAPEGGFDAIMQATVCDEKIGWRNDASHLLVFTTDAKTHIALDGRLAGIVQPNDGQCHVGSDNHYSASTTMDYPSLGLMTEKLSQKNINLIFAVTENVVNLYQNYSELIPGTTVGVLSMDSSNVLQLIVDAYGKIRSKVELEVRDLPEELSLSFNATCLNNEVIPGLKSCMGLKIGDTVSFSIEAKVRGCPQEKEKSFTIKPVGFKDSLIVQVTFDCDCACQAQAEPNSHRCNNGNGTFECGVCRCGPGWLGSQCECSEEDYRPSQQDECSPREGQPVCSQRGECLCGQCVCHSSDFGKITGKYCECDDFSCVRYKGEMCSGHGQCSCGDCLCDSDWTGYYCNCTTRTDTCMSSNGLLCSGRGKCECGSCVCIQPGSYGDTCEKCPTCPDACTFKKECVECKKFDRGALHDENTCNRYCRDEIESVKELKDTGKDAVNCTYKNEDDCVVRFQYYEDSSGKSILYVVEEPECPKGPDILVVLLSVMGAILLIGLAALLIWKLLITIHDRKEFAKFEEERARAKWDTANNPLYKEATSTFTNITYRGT
substance,measurement,setting,value
R(Pen)GHRGDWRCR [4Q],IC50,platelets [1],1.3 µM
same,IC50,platelets [2],3.3 µM
same,ex vivo platelet activation by collagen,platelets [3]; 5 mg/kg injection,near-maximal inhibition
same,ex vivo platelet response to ADP and AA,"platelets [3]; 5 mg/kg injection, all three time points",completely unresponsive
same,"ex vivo platelet aggregation by ADP, AA and collagen",platelets [3]; 10 mg/kg injection,prevented platelet aggregation by all three stimuli at one- and three-hour time points
same,coronary thrombosis: time to full occlusion,coronary thrombosis; 5 mg/kg,significantly prolonged the time to occlusion
same,thrombus formation in animals with platelet levels one-third of normal,coronary thrombosis; 5 mg/kg,able to prevent thrombus formation
same,coronary thrombosis: time to full occlusion,coronary thrombosis; 10 mg/kg,completely prevented occlusion
